Entries after “also recorded” stand apart in the source; their conditions may differ.
Assays:
[1] = system: ciMc4r; conditions: stated as similar to omMc4rs, ref [51]; cited from earlier work
Description: (§1) Numerous constitutively active mutants have been reported in several GPCRs, resulting in various human diseases, and inverse agonism will be vital for correcting the diseases caused by activating mutations in GPCRs. The constitutive activity of teleost Mc4r may have important physiological functions.

[2] = system: saMc4r; conditions: stated as similar to omMc4rs, ref [51]; cited from earlier work
Description: as §1

[3] = system: omMc4ra1; assay: Effect of antagonists on basal cAMP level, omMc4ra1; assay type: cell-based, rainbow trout (Oncorhynchus mykiss); conditions: 10 nM AgRP, 1 μM MCL0020, 1 μM ML00253764 or 1 μM Ipsen 5i, 1 h, HEK293T, RIA, three independent experiments
Procedure: (§2) Cells were plated into 24-well or 6-well plates pre-coated with 0.1% gelatin and transfected with plasmids by the calcium phosphate precipitation method.
(§3) Intracellular cAMP levels were determined according to previous protocol.

[4] = biological target: T1, hMC4R (Homo sapiens, UniProt P32245); conditions: ref [15],[51]; cited from earlier work
T1 construct: expressed in transfected cells; host or cells: HEK293T

[5] = system: ricefield eel Mc4r; parameters: method as in PMID 30075196, PMID 32615281; conditions: stated as similar to trout Mc4rs, ref [15],[51]; cited from earlier work
[6] = system: ciMc4r; conditions: stated as similar to trout Mc4rs, ref [15],[51]; cited from earlier work
[7] = system: omMc4ra2; assay: ERK1/2 phosphorylation assay, omMc4ra2; assay type: cell-based, rainbow trout (Oncorhynchus mykiss); conditions: 1 μM α-MSH, 10 nM AgRP, 1 μM MCL0020, 1 μM Ipsen 5i or 1 μM ML00253764, 5 min, HEK293T, Western blot, at least three independent experiments
Procedure: (§4) Human Embryonic Kidney (HEK) 293T cells, provided by American Type Culture Collection (Manassas, VA, USA), were cultured as described previously. Cells were plated into 24-well or 6-well plates pre-coated with 0.1% gelatin and transfected with plasmids by the calcium phosphate precipitation method.
(§5) HEK293T cells were transfected with omMC4Rs. Twenty-four hours after transfection, cells were washed twice and starved in media without serum for 24 h. […] Rabbit anti-pERK1/2 antibody (Catalog #4370, Cell Signaling, Beverly, MA, USA) and mouse anti-β-tubulin antibody (Developmental Studies Hybridoma Bank, University of Iowa, Iowa City, IA, USA) were used in this study. The bound antibodies were quantified using ImageJ 1.44 software (National Institute of Health, Bethesda, MD, USA).
(§6) Figure 9 ERK1/2 signaling properties of trout Mc4rs. (A) Immunoblots of pERK1/2 in cells expressing omMc4ra1, omMc4ra2, omMc4rb1, or omMc4rb2. HEK293T cells were transiently transfected with omMc4ra1, omMc4ra2, omMc4rb1, omMc4rb2, or empty vector plasmids and were starved overnight 24 h after transfection. […] Western blots were performed as described in Materials and Methods. (B) Densitometry results of basal pERK1/2 levels of omMc4ra1, omMc4ra2, omMc4rb1, and omMc4rb2. (C) Densitometry results of pERK1/2 level of omMc4ra1. (D) Densitometry results of pERK1/2 level of omMc4ra2. […]

[8] = biological target: T1, hMC4R; conditions: cited from earlier work
[9] = system: omMc4ra2; assay: Effect of antagonists on basal cAMP level, omMc4ra2; assay type: cell-based, rainbow trout (Oncorhynchus mykiss); conditions: 10 nM AgRP, 1 μM MCL0020, 1 μM ML00253764 or 1 μM Ipsen 5i, 1 h, HEK293T, RIA, three independent experiments
Procedure: as §2, §3

[10] = system: omMc4rb2; assay: Ligand-binding assay (displacement of 125I-NDP-MSH), omMc4rb2; parameters: species or system rainbow trout (Oncorhynchus mykiss); conditions: AgRP 10^-12 to 10^-7 M, MCL0020 and Ipsen 5i 10^-11 to 10^-6 M, ML00253764 10^-10 to 10^-5 M, transfected HEK293T cells
Procedure: as §4
(§7) A binding assay was conducted as described previously. […].
(§8) Binding assays were used to investigate the binding properties of omMc4rs. […].  Figure 6 Ligand-binding properties of omMc4rs. […]. Data are expressed as % of hMC4R binding ± range from duplicate measurements within one experiment. The curves are representative of at least three independent experiments.

[11] = system: omMc4ra1; assay: ERK1/2 phosphorylation assay, omMc4ra1; assay type: cell-based, rainbow trout (Oncorhynchus mykiss); conditions: 1 μM α-MSH, 10 nM AgRP, 1 μM MCL0020, 1 μM Ipsen 5i or 1 μM ML00253764, 5 min, HEK293T, Western blot, at least three independent experiments
Procedure: as §4, §5, §6

[12] = system: ciMc4r; conditions: ciMc4r (grass carp); ref [48],[51],[81]; cited from earlier work
Description: (§9) MC4R-mediated ERK1/2 signaling has a crucial role in the modulation of energy homeostasis. Although teleost Mc4rs have much higher basal activities in Gs-cAMP signaling, constitutive activation of ERK1/2 signaling is only observed in topmouth culter Mc4r but not in saMc4r and ciMc4r. […] Our data documented that these three compounds only activated ERK1/2 signaling of omMc4rb1 but not the other three omMc4rs (Figure 9).

[13] = system: saMc4r; conditions: saMc4r (spotted scat); ref [48],[51],[81]; cited from earlier work
Description: as §9

[14] = biological target: T1, hMC4R; conditions: ref [48],[51],[81]; cited from earlier work
Description: as §9

[15] = system: omMc4rb1; assay: ERK1/2 phosphorylation assay, omMc4rb1; assay type: cell-based, rainbow trout (Oncorhynchus mykiss)
Procedure: as §4, §5
Figure 9 ERK1/2 signaling properties of trout Mc4rs. (A) Immunoblots of pERK1/2 in cells expressing omMc4ra1, omMc4ra2, omMc4rb1, or omMc4rb2. HEK293T cells were transiently transfected with omMc4ra1, omMc4ra2, omMc4rb1, omMc4rb2, or empty vector plasmids and were starved overnight 24 h after transfection. […] Western blots were performed as described in Materials and Methods. (B) Densitometry results of basal pERK1/2 levels of omMc4ra1, omMc4ra2, omMc4rb1, and omMc4rb2. (C) Densitometry results of pERK1/2 level of omMc4ra1. (D) Densitometry results of pERK1/2 level of omMc4ra2. (E) Densitometry results of pERK1/2 level of omMc4rb1. (F) Densitometry results of pERK1/2 level of omMc4rb2.

[16] = system: ricefield eel Mc4r; parameters: method as in PMID 30075196; conditions: ref [15]; cited from earlier work
[17] = system: omMc4ra2; assay: Ligand-binding assay (displacement of 125I-NDP-MSH), omMc4ra2; parameters: species or system rainbow trout (Oncorhynchus mykiss); conditions: AgRP 10^-12 to 10^-7 M, MCL0020 and Ipsen 5i 10^-11 to 10^-6 M, ML00253764 10^-10 to 10^-5 M, transfected HEK293T cells
Procedure: as §4, §7, §8

[18] = system: omMc4rb2; assay: ERK1/2 phosphorylation assay, omMc4rb2; assay type: cell-based, rainbow trout (Oncorhynchus mykiss); conditions: 1 μM α-MSH, 10 nM AgRP, 1 μM MCL0020, 1 μM Ipsen 5i or 1 μM ML00253764, 5 min, HEK293T, Western blot, at least three independent experiments
Procedure: as §4, §5, §6

[19] = system: omMc4rb1; assay: Effect of antagonists on basal cAMP level, omMc4rb1; assay type: cell-based, rainbow trout (Oncorhynchus mykiss); conditions: 10 nM AgRP, 1 μM MCL0020, 1 μM ML00253764 or 1 μM Ipsen 5i, 1 h, HEK293T, RIA, three independent experiments
Procedure: as §2, §3

[20] = system: omMc4rb2; assay: Effect of antagonists on basal cAMP level, omMc4rb2; assay type: cell-based, rainbow trout (Oncorhynchus mykiss)
Procedure: as §2, §3

[21] = system: omMc4rb1; assay: Ligand-binding assay (displacement of 125I-NDP-MSH), omMc4rb1; parameters: species or system rainbow trout (Oncorhynchus mykiss); conditions: AgRP 10^-12 to 10^-7 M, MCL0020 and Ipsen 5i 10^-11 to 10^-6 M, ML00253764 10^-10 to 10^-5 M, transfected HEK293T cells
Procedure: as §4, §7, §8

[22] = system: saMc4r; conditions: stated as similar to trout Mc4rs, ref [15],[51]; cited from earlier work
[23] = system: omMc4ra1; assay: Ligand-binding assay (displacement of 125I-NDP-MSH), omMc4ra1; parameters: species or system rainbow trout (Oncorhynchus mykiss); conditions: AgRP 10^-12 to 10^-7 M, MCL0020 and Ipsen 5i 10^-11 to 10^-6 M, ML00253764 10^-10 to 10^-5 M, transfected HEK293T cells
Procedure: as §4, §7, §8

[24] = concluded from binding, cAMP and pERK1/2 results

T1 sequence (P32245 whole entry): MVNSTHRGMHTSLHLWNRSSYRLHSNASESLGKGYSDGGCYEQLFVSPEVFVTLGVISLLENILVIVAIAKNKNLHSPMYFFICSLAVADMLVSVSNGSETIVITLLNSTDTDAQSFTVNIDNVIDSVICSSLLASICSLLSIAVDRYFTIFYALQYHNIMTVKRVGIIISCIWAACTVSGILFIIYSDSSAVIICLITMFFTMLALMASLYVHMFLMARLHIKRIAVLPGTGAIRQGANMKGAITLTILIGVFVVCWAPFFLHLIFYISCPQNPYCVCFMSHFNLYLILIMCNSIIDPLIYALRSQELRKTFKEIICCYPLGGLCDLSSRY

COc1ccc(Br)cc1CCc1c(F)cccc1C1=NCCN1 [ML00253764, 2-[2-[2-(5-bromo-2-methoxyphenyl)-ethyl]-3-fluorophenyl]-4,5-dihydro-1H-imidazol]
effect on cAMP levels [1]: did not cause significant effects on the cAMP levels | effect on cAMP levels [2]: did not cause significant effects on the cAMP levels | effect on basal cAMP level [3]: did not cause significant effects on the cAMP levels | orthosteric binding [4]: bind to hMC4R orthosterically | orthosteric binding by displacing radiolabeled NDP-MSH [5]: neither ML00253764 nor Ipsen 5i bound | orthosteric binding by displacing radiolabeled NDP-MSH [6]: neither ML00253764 nor Ipsen 5i bound | effect on ERK1/2 phosphorylation [7]: no effect | basal activities of WT and constitutively active MC4R mutants ([8]; WT and mutants, ref [48],[51],[57],[58],[80]): decrease the basal activities | basal activity of hMC4R and constitutively active mutant hMC4Rs ([8]; hMC4R and mutants, ref [1],[28],[48],[51]): reduced by inverse agonists | effect on basal cAMP level [9]: did not cause significant effects on the cAMP levels | displacement of 125I-NDP-MSH binding [10]: could not displace | effect on ERK1/2 phosphorylation [11]: not by ML00253764, Ipsen 5i, or MCL0020 | biased signaling, Gs-cAMP versus ERK1/2 [12]: preferred activation on ERK1/2 signaling | biased signaling, Gs-cAMP versus ERK1/2 [13]: preferred activation on ERK1/2 signaling | biased signaling, Gs-cAMP versus ERK1/2 [14]: preferred activation on ERK1/2 signaling | effect on ERK1/2 phosphorylation ([15]; 1 μM α-MSH, 10 nM AgRP, 1 μM MCL0020, 1 μM Ipsen 5i or 1 μM ML00253764, 5 min, HEK293T, Western blot, at least three independent experiments): significantly increased | biased signaling, cAMP versus ERK1/2 [15, 24]: biased allosteric modulators for omMc4rb1 with selective activation on ERK1/2 signaling | basal cAMP generation [16]: could decrease basal cAMP generation | displacement of 125I-NDP-MSH binding [17]: could not displace | effect on ERK1/2 phosphorylation [18]: no effect | effect on basal cAMP level [19]: did not cause significant effects on the cAMP levels | effect on basal cAMP level ([20]; 10 nM AgRP, 1 μM MCL0020, 1 μM ML00253764 or 1 μM Ipsen 5i, 1 h, HEK293T, RIA, three independent experiments): acted as an agonist for omMcrb2 and significantly increasing the cAMP levels; also recorded: did not cause significant effects on the cAMP levels; also recorded: could stimulate cAMP signaling | biased signaling, cAMP versus ERK1/2 [20, 24]: allosteric agonist for omMc4rb2, preferentially activating Gs-cAMP signaling | displacement of 125I-NDP-MSH binding [21]: could not displace | orthosteric binding by displacing radiolabeled NDP-MSH [22]: neither ML00253764 nor Ipsen 5i bound | displacement of 125I-NDP-MSH binding [23]: could not displace

From article PMC10452266, “Divergent Pharmacology and Biased Signaling of the Four Melanocortin-4 Receptor Isoforms in Rainbow Trout (Oncorhynchus mykiss)” (Biomolecules, 2023)
